Data reported in patent US20220287995A1, “COMPOSITIONS AND METHODS FOR INHIBITING BACTERIAL VIRULENCE AND FLIM-BASED DEVICE AND METHOD FOR ANTIBIOTIC SUSCEPTIBILITY TESTING” (THE REGENTS OF THE UNIVERSITY OF CALIFORNIA, priority 2019, published 2022).

What was measured:
[1] = tested on: E. coli; experiment: FLIM-phasors of E. coli exposed to ampicillin (preliminary data, FIG. 13); assay type: cell-based
Excerpt: The process of antibiotic susceptibility testing involves: isolation of bacteria from patient samples, immobilization of bacteria on agarose pads that contain different antibiotics supplied above the accepted minimum inhibitory concentration from the major classes commonly used in clinical settings including amoxicillin (penicillin-type), cephalexin (cephalosporin), erythromycin (macrolide), ciprofloxacin (fluoroquinolone), trimethoprim (sulfonamide), tetracycline, and gentamicin (aminoglycoside), imaging using the FLIM-AST device immediately and at 15-minute intervals for 2 hours to assess metabolic kinetics in response to antibiotics (FIG. 12).
The antibiotic susceptibility determination is performed by comparing FLIM-phasor profiles during the 2-hour incubation using software.
The FLIM microscope uses an 80 MHz ultrafast Ti:Sapphire Mai Tai laser (Spectra-physics, Santa Clara, Calif.) set at 740 nm for excitation. […] An H7422P-40 photomultiplier tube module (Hamamatsu, Bridgewater, N.J.) and A320 FastFLIM Box (ISS, Champaign, Ill.) were used to measure fluorescence lifetime. Image acquisition was controlled by SimFCS software (Laboratory for Fluorescence Dynamics, Irvine, Calif.).

[2] = tested on: surface-attached P. aeruginosa; experiment: Image-based virulence (host killing) assay with amoeba host cells and calcein-AM; assay type: cell-based, Pseudomonas aeruginosa
Description: P. aeruginosa cells were assayed using an image-based virulence assay as described previously (12, 50). P. aeruginosa strains were cultured in PS:DB, diluted 1:100 into 60×15 mm plastic petri dishes (Corning, Corning, N.Y.), cultured for 4 to 6 hours by shaking at 100 rpm, and harvested. Planktonic cells were assayed by transferring 10 μL of culture from the petri dish to a new petri dish, mixing with an equal volume of D. discoideum that were grown to an OD600 of 0.2-0.5, and immobilizing by placing an agar pad on top of the mixture (FIG. 11C). Agar pads were made using Bacto agar at a concentration of 1%, DB buffer, and 1 μM calcein acetoxymethyl (AM) ester (Molecular Probes, Eugene, Oreg.), and were cut into 1.5×1.5 cm squares (12, 50). Surface-attached cells were assayed by aspirating planktonic cells from the culture, washing with DB buffer to remove planktonic cells, mixing with an equal volume of D. discoideum, and immobilizing by placing an agar pad on top of the mixture (FIG. 11C) (50). The immobilized planktonic or surface-attached P. aeruginosa and D. discoideum were incubated at room temperature for 1 hour and imaged using fluorescence microscopy. The host killing index (12, 50) was computed as the average ratio of calcein-AM fluorescence to cell area in individual amoeba cells for 30 to 200 cells in each experiment.
Fluorescence microscopy to assess calcein-AM fluorescence was performed using a Nikon Eclipse Ti-E microscope (Nikon, Melville, N.Y.) containing Nikon 10× Plan Fluor Ph1 (0.3 NA) and 20×S Plan Fluor Nikon (0.45 NA) objectives, a Sola light engine (Lumencor, Beaverton, Oreg.), an LED-DA/FI/TX filter set (Semrock, Rochester, N.Y.) containing a 409/493/596 dichroic and 474/27 nm and 525/45 nm filters for excitation and emission, respectively, and a Hamamatsu Orca Flash 4.0 V2 camera (Hamamatsu, Bridgewater, N.J.). Images were acquired using Nikon NIS-Elements and analyzed using custom built software written previously (12) in Matlab (Mathworks, Natick, Mass.).
For experiments in which strains cultured in PS:DB were supplemented with individual carbon sources (FIG. 5A-D), pyruvic acid, citric acid, […], glycerol, or glucose was added to cultures at a final concentration of 0.2% at 3 hours following a 1:100 dilution from an overnight culture. Cultures were harvested after 1 additional hour of growth for measurements of fluorescence lifetime and NADH and NAD^+ concentrations. For experiments in which surface-attached strains that were cultured in PS:DB media were treated with antimycin A (FIG. 5E-F), 10 μM antimycin A dissolved in 0.1% ethanol, 0.1% ethanol, alone, or 10 μM antimycin A dissolved in 0.1% ethanol and 0.2% citric acid were added after 3 hours of growth following a 1:100 dilution from an overnight culture. Host killing was measured after an additional 1 to 3 hours of growth (total of 4 to 6 hours of growth).

[3] = tested on: E. coli; experiment: FLIM-AST (FAST) antibiotic susceptibility, g value and residual ratio (RR); assay type: cell-based; conditions: tetracycline-sensitive vs tetracycline-resistant strain, 1 hour
Excerpt: We performed FLIM measurements using our FLIM AST (FAST) device of antibiotic-sensitive and antibiotic-resistant E. coli lab strains MG1655 and MC4100, P. aeruginosa strain PA14, and S. aureus strain RN4220 using a broad range of commonly-used antibiotics including tetracycline, ampicillin, carbenicillin, chloramphenicol, spectinomycin, gentamycin, and kanamycin and using a range of concentrations for each drug. For each antibiotic and strain combination, the minimum inhibitory concentration for each antibiotic was determined through measurements of optical densities of cultures. We treated bacterial strains using a range of concentrations starting from below-MIC to above-MIC concentrations for 1 hour.
We computed g values using the FLIM phasor method. Consistent with our predictions, we observed a significant change in g value following treatment by many antibiotics.
To determine a quantitative assessment of resistance, we computed a metric for the degree of antibiotic susceptibility for a given bacterial strain. Our experiments determined that the residual ratio (RR) number was a good indicator of antibiotic resistance:
where the g value is obtained using the phasor method to fluorescence lifetime imaging microscopy (FLIM) and t0 and t1 are the measurement times at the beginning of the measurement or at the end of the experiment, respectively. […]

[4] = tested on: P. aeruginosa; experiment: Fluorescence lifetime imaging microscopy (FLIM) phasor g-values of P. aeruginosa; assay type: cell-based, Pseudomonas aeruginosa; conditions: planktonic wild-type, 0.2% citrate as sole carbon source, 10 μM antimycin A in 0.1% ethanol vs 0.1% ethanol
Description: Fluorescence lifetime measurements were performed using a custom-built multiphoton microscope setup based on an Olympus FV1000 system and an Olympus IX81 microscope (Olympus, Waltham, Mass.) as described previously (68). The FLIM microscope uses an 80 MHz ultrafast Ti:Sapphire Mai Tai laser (Spectra-physics, Santa Clara, Calif.) set at 740 nm for mulitphoton excitation. The setup used a 690-nm SP dichroic-460/80 nm filter pair for separating emission and a PlanApo N Olympus oil immersion 60× (1.42 NA) objective (Olympus, Waltham, Mass.), which is capable of bacterial single-cell resolution imaging. An H7422P-40 photomultiplier tube module (Hamamatsu, Bridgewater, N.J.) and A320 FastFLIM Box (ISS, Champaign, Ill.) were used to measure fluorescence lifetime. Image acquisition was controlled by SimFCS software version 4 (64-bit) (Laboratory for Fluorescence Dynamics, Irvine, Calif.). Planktonic and surface-attached cells were isolated by modifying a protocol described previously (12, 50) (FIG. 11A).
Masks for bacterial cells were created through SimFCS using fluorescence intensity images and image intensity thresholding (FIG. 11B). Fluorescence lifetimes within the masked areas were transformed using
The microscope was calibrated before each session by setting the fluorescence lifetime obtained for 10 μM rhodamine 110 (Sigma, St. Louis, Mo.) to 4.0 ns. The laser power was set to 20% (<3 mW at back aperture of the microscope) using an acousto-optic modulator (AA Opto Electronic, Orsay, France). Sub-cellular fluorescence lifetimes (FIG. 1A) were collected using the 20× digital zoom mode at a rate of 1.7 sec/frame. All other P. aeruginosa measurements were performed using the 6× digital zoom mode using the same frame rate. For all measurements, 40 sequential frames were acquired to generate a single FLIM image.
P. aeruginosa strains were cultured overnight in PS:DB, diluted 1:100 into 35 mm glass-bottom dishes (MatTek Corporation, Ashland, Mass.) containing the same medium, and cultured for 4 to 6 hours (FIGS. 2E-F, 4A, 5A, and 8C). Alternatively, strains were cultured overnight in minimal medium A, diluted 1:100 into modified minimal media A with single carbon sources in culture tubes (FIGS. 6D-E and 7A-B, D) or glass-bottom dishes and cultured to an OD600 of 0.2 (FIG. 2E-F).
Planktonic cells were transferred to a new glass-bottom dish, immobilized using an agar pad, and imaged immediately (FIG. 11A). Agar pads were made using 1% Bacto agar (BD, Franklin Lakes, N.J.) and DB buffer (1, 2) or modified minimal medium A containing no carbon source for strains that were cultured in PS:DB or modified minimal medium, respectively, and were cut into 1.5×1.5 cm squares. Surface-attached cells were isolated by aspirating the supernatant from the dish, washing the dish to remove planktonic cells with DB buffer or modified minimal medium with no carbon source for strains cultured in PS:DB or modified minimal medium, respectively, and placing an agar pad on the dish surface, and were imaged immediately. Imaging was performed at room temperature.
For experiments involving FLIM measurements of the effects of antimycin A (FIG. 7D), P. aeruginosa were grown in culture tubes to saturation in modified minimal medium A containing 0.2% citrate, diluted 1:100 into the same medium in culture tubes, supplemented with 10 μM antimycin A (Sigma, St. Louis, Mo.) with 0.1% ethanol or with 0.1% ethanol, cultured to an OD600 of 0.2, and immediately measured for fluorescence lifetime. Fluorescence lifetimes for pyocyanin and pyoverdine (FIG. 7C) were measured using solutions of 6.2 mM pyocyanin (P0046, Sigma, St. Louis, Mo.) in DMSO and 5 mg/mL pyoverdine (P8124, Sigma, St. Louis, Mo.) in deionized water, respectively. For FIG. 6D, cells with fluorescence intensities below a value of 1.0, as reported by the SimFCS software, were excluded from the analysis. […]

`CC1(C)S[C@@H]2[C@H](NC(=O)[C@H](N)c3ccccc3)C(=O)N2[C@H]1C(=O)O` [ampicillin] was tested, and the “average values along the g-axis” value ([1]; E. coli exposed to ampicillin) was “vary with concentration” and the “phasor profile after drug is removed” value ([1]; E. coli, after ampicillin is removed) was “recovers to smaller values of g”.
With `O=P(O)(O)O` [phosphoric acid, reference compound] the “host-killing activity (host killing index)” value ([2]; surface-attached wild-type P. aeruginosa in rich (PS:DB) medium, supplemented at 3 hours at 0.2%, assessed after 6 hours of growth, amoeba host cells) was “little impact on host-killing activity”.
`CN(C)[C@@H]1C(O)=C(C(N)=O)C(=O)[C@@]2(O)C(O)=C3C(=O)c4c(O)cccc4[C@@](C)(O)[C@H]3C[C@@H]12` [tetracycline] was tested, and the “concentration at which the increase in RR value begins” value [3] was 50 µg/mL.
In the case of antimycin A [reference compound], the “shift in fluorescence lifetime g-value” [4] is reported as “shift towards higher g-value” and the “virulence induced earlier than untreated cells” value ([2]; surface-attached P. aeruginosa, 10 μM antimycin A in 0.1% ethanol added at 3 hours, host killing at 4.5 to 6 hours) is reported as 30 min.
